Key:
[1] = target: F1174L ALK-TKD (Homo sapiens, UniProt Q9UM73, F1174L)
[2] = tested on: R1275Q xenografts; assay: In vivo activity of GSK1838705A in xenografts
[3] = tested on: SH-SY5Y (F1174L) xenografts
[4] = tested on: NB1643 (R1275Q) xenografts; assay: In vivo tumor growth inhibition, NB1643 xenografts; parameters: species or system CB17 scid mice
[5] = tested on: NBSD (F1174L) xenografts; assay: In vivo tumor growth inhibition, NBSD xenografts; parameters: species or system CB17 scid mice
[6] = 100mg/kg/day oral gavage for 4 weeks

How did the “in vitro inhibition of ALK-TKD, F1174L compared with R1275Q-mutated ALK-TKD” value [1] turn out when `CN[C@@H]1C[C@H]2O[C@@](C)([C@@H]1OC)n1c3ccccc3c3c4c(c5c6ccccc6n2c5c31)C(=O)NC4` [staurosporine] was run?
The value was “impaired by the F1174L mutation”.

With `CNC(=O)c1c(F)cccc1Nc1nc(Nc2cc3c(cc2OC)CCN3C(=O)CN(C)C)nc2[nH]ccc12` [GSK1838705A] as the compound, how does the “in vivo activity in xenografts” value [2] read?
The value was “only showed significant in vivo activity against R1275Q xenografts”.

Which tumor regression [3, 6] does the source give for `C[C@@H](Oc1cc(-c2cnn(C3CCNCC3)c2)cnc1N)c1c(Cl)ccc(F)c1Cl` [crizotinib] here?
The tumor regression was “No tumor regression was observed”.

What about the “extension of time taken to reach the study endpoint (tumor volume ≥ 1.5 cm^3)” value ([3]; 100mg/kg/day, average, p < 0.0001) of the same compound?
Its value is 7.7 days.

And the tumor response [4, 6]?
Its tumor response is “tumor regression within three weeks”.

What about the “tumor response over the fourth week of dosing” value ([4]; 100mg/kg/day oral gavage, p < 0.0001) of the same compound?
The value was “complete regression was sustained”.

What about the tumor volume ([5]; 100mg/kg/day oral gavage for 4 weeks, p = 0.29) of the same compound?
The tumor volume was “failed to reduce tumor volume”.

What about the “extension of time to reach the study endpoint” value ([5]; 100mg/kg/day, mean, p = 0.04) of the same compound?
Its value is 3.7 days.

From paper PMC3319004 (Science Translational Medicine, 2011)
